{
  "source": "patent US20260217687A1",
  "about": "(NeoPhore Limited, priority 2023, published 2026)",
  "data": [
    {"molecular_target": "T1, recombinant N-terminal MLH1 (residues 15-340) (Homo sapiens, UniProt P40692)", "T1 construct": "recombinant N-terminal MLH1 (residues 15-340)", "T1 sequence (P40692 15-340)": "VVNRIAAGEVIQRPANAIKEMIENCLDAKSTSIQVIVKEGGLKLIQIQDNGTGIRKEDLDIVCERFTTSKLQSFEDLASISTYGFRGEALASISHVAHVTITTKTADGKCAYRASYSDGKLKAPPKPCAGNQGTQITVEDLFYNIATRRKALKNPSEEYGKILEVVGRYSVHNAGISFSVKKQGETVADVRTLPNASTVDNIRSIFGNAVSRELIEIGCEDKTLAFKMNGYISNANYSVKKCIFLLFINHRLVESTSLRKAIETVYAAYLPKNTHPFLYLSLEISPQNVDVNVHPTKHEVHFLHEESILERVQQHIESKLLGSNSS", "assay": "Fluorescence Polarisation Assay for MLH1", "format": "binding", "conditions": "100 nM N-terminal MLH1, 5 nM probe compound", "in_short": "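Fluorescence polarisation displacement: 100 nM MLH1 (15-340) preincubated 30 min at room temperature with compound, then 5 nM rhodamine-labelled probe added and read immediately. Buffer 25 mM HEPES pH 7.5, 250 mM NaCl, 10 mM MgCl2, 0.01% Triton X-100, 5 mM DTT; normalised to no-inhibitor and no-enzyme controls.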", "units": {"IC50": "µM"}, "values": [
      {"smiles": "CN(C)Cc1ccc2c(c1)CN(C(=O)c1c(O)cc(C#N)cc1OCc1ccccc1)C2", "note": "[Example 10.15, 3-(Benzyloxy)-4-(5-((dimethylamino)methyl)isoindoline-2-carbonyl)-5-hydroxybenzonitrile]", "IC50": "1 to 10"},
      {"smiles": "CN1C[C@H](Nc2cccc3c2CN(C(=O)c2c(O)cc(C#N)cc2OCc2ccccc2)C3)CC1=O", "note": "(single isomer, unassigned) [Example 10.8, (R)-3-(Benzyloxy)-5-hydroxy-4-(4-((1-methyl-5-oxopyrrolidin-3-yl)amino)isoindoline-2-carbonyl)benzonitrile or (S)-3-(benzyloxy)-5-hydroxy-4-(4-((1-methyl-5-oxopyrrolidin-3-yl)amino)isoindoline-2-carbonyl)benzonitrile]", "IC50": "0.1 to 1"},
      {"smiles": "CN(C)CCOc1cc2c(c(N[C@H]3CCOC3)c1)CN(C(=O)c1c(O)cc(C(F)F)cc1OCc1ccccc1)C2", "note": "[Example 4.76]", "IC50": "< 0.1"},
      {"smiles": "CN(C)CCOc1nc2c(c(NC3CCOC3)n1)CN(C(=O)c1c(O)cc(C(F)F)cc1OCc1ccccc1)CC2", "note": "(stereo not shown) [Example 27.17, (2-(Benzyloxy)-4-(difluoromethyl)-6-hydroxyphenyl)(2-(2-(dimethylamino)ethoxy)-4-((tetrahydrofuran-3-yl)amino)-7,8-dihydropyrido[4,3-d]pyrimidin-6(5H)-yl)methanone]", "IC50": "0.1 to 1"},
      {"smiles": "Cn1cnc(-c2cc3c(c(N[C@H]4CCOC4)c2)CN(C(=O)c2c(O)cc(C(F)F)cc2OCc2ccccc2)C3)c1", "note": "[Example 4.25, (S)-(2-(Benzyloxy)-4-(difluoromethyl)-6-hydroxyphenyl)(6-(1-methyl-1H-imidazol-4-yl)-4-((tetrahydrofuran-3-yl)amino)isoindolin-2-yl)methanone]", "IC50": "0.1 to 1"},
      {"smiles": "O=C(c1c(O)cc(C(F)F)cc1OCc1ccccc1)N1CCc2ccc(NC3CCOC3)cc21", "note": "(stereo not shown) [Example 27.2, (2-(Benzyloxy)-4-(difluoromethyl)-6-hydroxyphenyl)(6-((tetrahydrofuran-3-yl)amino)indolin-1-yl)methanone]", "IC50": "0.1 to 1"},
      {"smiles": "CN(C)Cc1ccc2c(c1)CN(C(=O)c1c(O)cc(C(F)F)cc1OCc1ccccc1)C2", "note": "[Example 4.51, (2-(Benzyloxy)-4-(difluoromethyl)-6-hydroxyphenyl)(5-((dimethylamino)methyl)isoindolin-2-yl)methanone]", "IC50": "0.1 to 1"},
      {"smiles": "CN1CC[C@@H](Oc2ccc3c(c2)CN(C(=O)c2c(O)cc(C#N)cc2OCc2ccccc2)C3)C1", "note": "[Example 10.30, (R)-3-(Benzyloxy)-5-hydroxy-4-(5-((1-methylpyrrolidin-3-yl)oxy)isoindoline-2-carbonyl)benzonitrile]", "IC50": "0.1 to 1"},
      {"smiles": "N#Cc1cc(O)c(C(=O)N2Cc3cnc(N)cc3C2)c(OCc2ccccc2)c1", "note": "[Example 27.10, 4-(6-Amino-2,3-dihydro-1H-pyrrolo[3,4-c]pyridine-2-carbonyl)-3-(benzyloxy)-5-hydroxybenzonitrile hydroformate]", "IC50": "1 to 10"},
      {"smiles": "O=C(c1c(O)cc(C(F)F)cc1OCc1ccccc1)N1Cc2cccc(OC3CCOC3)c2C1", "note": "(stereo not shown) [Example 4.79, (2-(Benzyloxy)-4-(difluoromethyl)-6-hydroxyphenyl)(4-((tetrahydrofuran-3-yl)oxy)isoindolin-2-yl)methanone]", "IC50": "1 to 10"},
      {"smiles": "CN1CCN(c2cc3c(cn2)CN(C(=O)c2c(O)cc(C#N)cc2OCc2ccccc2)C3)CC1", "note": "[Example 27.1, 3-(Benzyloxy)-5-hydroxy-4-(6-(4-methylpiperazin-1-yl)-2,3-dihydro-1H-pyrrolo[3,4-c]pyridine-2-carbonyl)benzonitrile]", "IC50": "1 to 10"},
      {"smiles": "O=C(c1c(O)cc(C(F)F)cc1OCc1ccccc1)N1CCc2cccc(OC3CCOC3)c2C1", "note": "(stereo not shown) [Example 4.80]", "IC50": "1 to 10"},
      {"smiles": "CN1CCN(CCOc2ccc3c(c2)CN(C(=O)c2c(O)cc(C(F)F)cc2OCc2ccccc2)C3)CC1", "note": "[Example 4.71, (2-(Benzyloxy)-4-(difluoromethyl)-6-hydroxyphenyl) (5-(2-(4-methylpiperazin-1-yl)ethoxy)isoindolin-2-yl) methanone]", "IC50": "0.1 to 1"},
      {"smiles": "O=C(c1c(O)cc(C(F)F)cc1OCc1ccccc1)N1Cc2ccccc2C1", "note": "[Example 4.54, (2-(Benzyloxy)-4-(difluoromethyl)-6-hydroxyphenyl)(isoindolin-2-yl)methanone]", "IC50": "1 to 10"},
      {"smiles": "N#Cc1cc(O)c(C(=O)N2Cc3cccc(N[C@@H]4CCOC4)c3C2)c(OCc2ccccc2)c1", "note": "[Example 12.3, (R)-3-(Benzyloxy)-5-hydroxy-4-(4-((tetrahydrofuran-3-yl)amino)isoindoline-2-carbonyl)benzonitrile]", "IC50": "1 to 10"},
      {"smiles": "N#Cc1cc(O)c(C(=O)N2CCCc3cc(NC4CCOC4)ccc32)c(OCc2ccccc2)c1", "note": "(stereo not shown) [Example 27.18, 3-(Benzyloxy)-5-hydroxy-4-(6-((tetrahydrofuran-3-yl)amino)-1,2,3,4-tetrahydroquinoline-1-carbonyl)benzonitrile]", "IC50": "1 to 10"},
      {"smiles": "O=C(c1c(O)cc(C(F)F)cc1OCc1ccccc1)N1Cc2cccc(NC3COC3)c2C1", "note": "[Example 4.4, (2-(Benzyloxy)-4-(difluoromethyl)-6-hydroxyphenyl)(4-(oxetan-3-ylamino)isoindolin-2-yl)methanone]", "IC50": "0.1 to 1"},
      {"smiles": "CC(=O)N1CCC(Oc2ccc3c(c2)CN(C(=O)c2c(O)cc(C(F)F)cc2OCc2ccccc2)C3)CC1", "note": "[Example 29, 1-(4-((2-(2-(Benzyloxy)-4-(difluoromethyl)-6-hydroxybenzoyl)isoindolin-5-yl)oxy)piperidin-1-yl) ethan-1-one]", "IC50": "< 0.1"},
      {"smiles": "CN1CC(Oc2ccc3c(c2)CCN(C(=O)c2c(O)cc(C(F)F)cc2OCc2ccccc2)C3)C1", "note": "[Example 4.66, (2-(Benzyloxy)-4-(difluoromethyl)-6-hydroxyphenyl)(6-((1-methylazetidin-3-yl)oxy)-3,4-dihydroisoquinolin-2(1H)-yl)methanone]", "IC50": "0.1 to 1"},
      {"smiles": "N#Cc1cc(O)c(C(=O)N2Cc3cccc(N[C@H]4CCOC4)c3C2)c(OCC2CC2)c1", "note": "[Example 12.2, (S)-3-(Cyclopropylmethoxy)-5-hydroxy-4-(4-((tetrahydrofuran-3-yl)amino)isoindoline-2-carbonyl)benzonitrile]", "IC50": "1 to 10"},
      {"smiles": "CN1CCN(Cc2ccc3c(c2)CN(C(=O)c2c(O)cc(C(F)F)cc2OCc2ccccc2)C3)CC1", "note": "[Example 4.30, (2-(Benzyloxy)-4-(difluoromethyl)-6-hydroxyphenyl) (5-((4-methylpiperazin-1-yl)methyl)isoindolin-2-yl) methanone]", "IC50": "0.1 to 1"},
      {"smiles": "O=C(c1c(O)cc(C(F)F)cc1OCc1ccccc1)N1CCc2cc(NC3CCOC3)ccc21", "note": "(stereo not shown) [Example 27.5, (2-(Benzyloxy)-4-(difluoromethyl)-6-hydroxyphenyl)(5-((tetrahydrofuran-3-yl)amino)indolin-1-yl)methanone]", "IC50": "1 to 10"},
      {"smiles": "CN(C)C(=O)CNc1cccc2c1CN(C(=O)c1c(O)cc(C(F)F)cc1OCc1ccccc1)C2", "note": "[Example 4.29, 2-((2-(2-(Benzyloxy)-4-(difluoromethyl)-6-hydroxybenzoyl)isoindolin-4-yl)amino)-N, N-dimethylacetamide]", "IC50": "0.1 to 1"},
      {"smiles": "CN(C)CCOc1cccc2c1CCN2C(=O)c1c(O)cc(C(F)F)cc1OCc1ccccc1", "note": "[Example 27.13, (2-(Benzyloxy)-4-(difluoromethyl)-6-hydroxyphenyl)(4-(2-(dimethylamino)ethoxy)indolin-1-yl)methanone]", "IC50": "0.1 to 1"},
      {"smiles": "CN(C)CCOc1ccc2c(c1)CCN(C(=O)c1c(O)cc(C#N)cc1OCc1ccccc1)C2", "note": "[Example 10.29, 3-(Benzyloxy)-4-(6-(2-(dimethylamino)ethoxy)-1,2,3,4-tetrahydroisoquinoline-2-carbonyl)-5-hydroxybenzonitrile]", "IC50": "1 to 10"}
    ]}
  ]
}
